Assay results: patent US8618179B2, “Composition comprising a pesticide and an alkoxylate of 2-propylheptylamine” (BASF SE, priority 2010, dated 2013)

Legend:
[1] = tested on: Chenopodium album (CHEAL); test: Greenhouse test, imazamox SL formulation on Chenopodium; type: in vivo; conditions: scored after 14 days; 10 g of imazamox/ha and 400 g of amine alkoxylate/ha
Experimental: (§1) The herbicidal activity was evaluated by awarding scores to the treated plants in comparison to the untreated control plants (Table 2). The evaluation scale ranges from 0% to 100% activity. 100% activity means the complete death at least of those parts of the plant that are above ground. Conversely, 0% activity means that there were no differences between treated and untreated plants.
(§2) The application rate was 10 g of imazamox/ha and 400 g of amine alkoxylate/ha. For comparison, a tallow fatty amine ethoxylate with 12 ethylene oxide units was used (liquid, approximately 100% content, molar mass approximately 730 g/mol (calculated from OH number), available commercially as Lutensol® FA12K from BASF SE).

[2] = tested on: Ambrosia artemisiifolia (AMBEL); test: Greenhouse test, imazamox SL formulation on Ambrosia; type: in vivo; conditions: scored after 14 days; 10 g of imazamox/ha and 400 g of amine alkoxylate/ha
Experimental: as §1, §2

Brachiarea multica = test: Field trial, glyphosate SL formulation with amine alkoxylate against weed; type: in vivo; conditions: glyphosate-isopropylammonium SL spray solution with amine alkoxylate, visual estimate
Experimental: To this end, in each case 1.0 l of spray solution (see table 1) was sprayed per plot using a manual sprayer. 1.0 l of the spray solution contained 7.5 ml of an aqueous formulation of dissolved glyphosate-isopropyl-ammonium salt. To prepare this formulation, 100 ml of amine alkoxylate of example 2 were previously made up to 1.0 l with 46% strength glyphosate-isopropylammonium salt solution. Two, five and seven days after the application, the destruction of the weed was estimated visually in percent. Rain fell repeatedly in the days between application and assessment.

[3] = Gelling upon addition of amine alkoxylate to glyphosate solution; type: physicochemical; conditions: addition at 20° C.
[4] = tested on: winter oilseed rape (cultivar Remy); test: Greenhouse test, glyphosate SL formulation on oilseed rape; type: in vivo; conditions: Table 2; 140 g of glyphosate/ha and 300 g of amine alkoxylate/ha
Experimental: A concentrated formulation comprising glyphosate isopropylammonium in solution in water and amine alkoxylate from Example 2 was diluted with deionized water and applied at a water application rate of 375 l/ha (140 g of glyphosate/ha and 300 g of amine alkoxylate/ha). The temperatures in the experimental period, which lasted for 3 to 4 weeks, were between 18-35° C. During this time, the experimental plants received optimum watering, with nutrients being supplied via the water used for watering. The herbicidal activity was evaluated by awarding scores to the treated plants in comparison to the untreated control plants (Table 2). […] Conversely, 0% activity means that there were no differences between treated and untreated plants. […] The application rate was 140 g of glyphosate/ha and 300 g of amine alkoxylate/ha.

[5] = Storage stability of glyphosate formulation with amine alkoxylate; type: physicochemical; conditions: temperatures of from 5 to +55° C.
Source text: Also, the formulation was rainfast.

Daphnia magna = test: Water toxicity on Daphnia magna, OECD Guideline 202 part 1; type: in vivo; conditions: 48 h

2-propylheptylamine ethoxylate [2-PHamine-7 EO]
Activity [%] CHEAL [1]: 93% | Activity [%] AMBEL [2]: 80% | Proportion [%] of weed destroyed (Brachiarea multica; 2 days after application): 40% | Proportion [%] of weed destroyed (Brachiarea multica; 5 days after application): 87.5% | Proportion [%] of weed destroyed (Brachiarea multica; 7 days after application): 90% | Gelling upon addition to the glyphosate solution [3]: no gelling observed | Activity [%] after 14 days [4]: 75% | Activity [%] after 21 days [4]: 86% | Storage stability of the formulation [5]: storage-stable for at least two weeks | EC50 (Daphnia magna): 60 µg/mL
